Measured values taken from PMC7175314, “Development of Novel ^111-In-Labelled DOTA Urotensin II Analogues for Targeting the UT Receptor Overexpressed in Solid Tumours” (Biomolecules, 2020).
Where a SMILES comes first, the peptide text is derived from it. Bridges are numbered along the chain shown (N, C = ends). [ ]: non-standard residue; d: D form. The star is where a group is joined. DOTA = O=C(O)CN1CCN(CC(=O)O)CCN(CC(=O)*)CCN(CC(=O)O)CC1; Pen = CC(C)(S)[C@H](N)C(=O)O; Orn = NCCC[C@H](N)C(=O)O; Ahx = NCCCCCC(=O)O

What was measured:
[1] = biological target: T1, human UT (Homo sapiens, UniProt Q9UKP6); assay: UT internalisation assay (ELISA) in HEK-293 cells expressing UT-MYC; type: cell-based; settings: 1 h, graded concentrations up to 10^−6 M
T1 construct: expressed in transfected cells; host or cells: HEK-293
T1 sequence (Q9UKP6 1-389): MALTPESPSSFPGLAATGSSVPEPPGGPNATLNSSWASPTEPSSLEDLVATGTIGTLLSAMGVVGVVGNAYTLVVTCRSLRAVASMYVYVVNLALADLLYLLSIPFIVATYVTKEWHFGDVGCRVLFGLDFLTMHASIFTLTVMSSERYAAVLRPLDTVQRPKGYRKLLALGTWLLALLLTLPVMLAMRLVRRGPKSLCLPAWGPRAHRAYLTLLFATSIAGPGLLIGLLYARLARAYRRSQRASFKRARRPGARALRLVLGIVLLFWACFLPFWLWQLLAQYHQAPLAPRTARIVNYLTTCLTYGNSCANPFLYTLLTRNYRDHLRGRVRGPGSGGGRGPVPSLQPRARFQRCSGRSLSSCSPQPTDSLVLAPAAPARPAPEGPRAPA
Method: For ELISA experiments, HEK-293 cells expressing UT-MYC were plated at 10,000 cells/well into white, 96-well plates (Corning, Bagneaux-sur-Loing, France), previously coated with poly-L-ornithine (100 µg/mL, 1 h, 37 °C) and incubated overnight in culture medium. […] Cells were permeabilised or not with Triton X-100 (0.05%, 5 min). Non-specific binding sites were blocked with FBS (10%) and normal donkey serum (NDS, 2%, 1 h). Cells were then incubated with anti-MYC antibody (1 h, 20 °C) followed by incubation with GAM-HRP (1 h, 20 °C). After washes, chemoluminescence was detected with an ELISA kit (ThermoFisher Scientific, Montigny-Le-Bretonneux, France) and the InfinitePro200 plate reader (TECAN FRANCE, Lyon). Data are expressed as the ratio between intensity measured on the permeabilised cells and that measured on the non-permeabilised cells, compared to the average control value.

[2] = biological target: T2, human UT-GFP (Homo sapiens, UniProt Q9UKP6); assay: UT internalisation by confocal microscopy in HEK-293 cells expressing UT-GFP; type: cell-based; settings: 10^−7 M, 1 h
T2 construct: expressed in transfected cells; host or cells: HEK-293 (transient)
T2 sequence (Q9UKP6 1-389): T1 sequence (Q9UKP6 1-389)
Method: For cytochemistry experiments, HEK-293 cells expressing UT-GFP were seeded at 70,000 cells/well into transparent, 24-well plates (Corning, Bagneaux-sur-Loing, France), previously coated with human fibronectin (25 µg/mL, overnight, 4 °C) and incubated overnight in culture medium. […] Cells were rinsed with PBS, fixed with paraformaldehyde (4%, 10 min) and counterstained with DAPI (1 µg/mL, 5 min) to label nuclei. Image analysis was performed by confocal microscopy (Leica TCS SP8 confocal laser scanning microscope).

[3] = in vivo; parameters: species or system Swiss (nu/nu) mice; settings: Swiss (nu/nu), mouse, iv, 2 MBq
Method: For tumour targeting studies, inocula (100 µL) containing a suspension of 5 × 10^6 freshly harvested A549 or DLD-1 cells in phosphate buffered-saline were injected subcutaneously into the right shoulder blade in Swiss (nu/nu) mice (n = 5 in each group). When the tumour size reached 250 mm^3 (approximatively 2-weeks), 2 MBq of ^111In-DOTA-hUII or ^111In-DOTA-urantide were injected into the tail vein. After 24 h, animals were sacrificed, and tumours were collected, directly frozen in isopentane (−50 °C) and stored at −80 °C.

[4] = in vitro; type: in vitro ADME, human
Method: The mixture was incubated in a 5% CO2, 37 °C and 100 μL aliquots (in triplicates) were removed at different time points and treated with 200 μL of EtOH to precipitate serum proteins. Samples were then centrifuged for 15 min at 2500g and after centrifugation, 50 μL of supernatant was counted, and also analysed by thin layer chromatography to determine the amount of intact peptide and its metabolites in the serum.

[5] = parameters: species or system C57BL/6 mice; settings: mouse, in vivo, iv
Method: For biodistribution studies, C57BL6/6 wild-type mice were injected with ^111In-DOTA-hUII (3 MBq, 100 µL) into the tail vein. Mice were sacrificed at 4, 24, 48 and 72 h post-injection and blood and organs were collected. All samples were analysed with a gamma counter and the data presented were calculated as the percent injected dose per gram of tissue (% ID/g). Data were expressed as mean ± SEM obtained from four animals per kinetic time.

[6] = biological target: T1, human UT; assay: Competition binding of ^125I-hUII on HEK-293 cells expressing UT; settings: displacement of ^125I-hUII (0.2 nM), HEK-293 cells expressing human UT, 2 h 22 °C
Method: Cultured HEK-293 cells expressing UT-MYC were rinsed three times with PBS, dried under a cold air stream and stored at −80 °C until binding experiments. […] At the end of the incubation, cells were washed three times with assay buffer, solubilised with 1% SDS and the radioactivity was counted in a gamma counter (LKB Wallac, Evry, France).

[7] = biological target: T1, human UT; assay: Calcium assay (fluo-4, FlexStation) in HEK-293 cells expressing UT; type: cell-based; settings: [Ca^2+]c increase, HEK-293 cells expressing human UT, 10^−11 to 10^−6 M
Method: HEK-293 cells expressing UT-MYC were plated at 50,000 cells/well into clear-bottom, black, 96-well plates (Corning, Bagneaux-sur-Loing, France), previously coated with poly-L-ornithine (100 µg/mL, 1 h, 37 °C) and incubated overnight in culture medium. After 24 h, cells were rinsed twice with HBSS buffer (20 mM HEPES, 0.5 mM MgCl2, 2.6 mM CaCl2, 7.7 mM Na2CO3, 1.4 mM MgSO4, 5.3 mM KCl, 138 mM NaCl, 0.1% BSA, 5.5 mM glucose, 2.5 mM probenecid, pH 7.4) (Sigma Aldrich, Saint-Quentin-Fallavier, France) and loaded (40 min at 37 °C) with the calcium-sensitive dye fluo-4 AM (ThermoFisher Scientific, Montigny-Le-Bretonneux, France) containing pluronic acid (20% in DMSO). […] Data were expressed as the ratio of maximum response to the average control value.

[8] = system: A549 cells; assay: Cell proliferation, A549; type: cell-based, human; settings: 10^−9 or 10^−7 M, only observable after 48 h
[9] = system: DLD-1 cells; assay: Cell proliferation, DLD-1; type: cell-based, human; settings: 10^−9 or 10^−7 M, only observable after 48 h
[10] = system: A549 cells; assay: Cell migration assay (modified Boyden chamber), A549; type: cell-based, human; settings: 10^−9 or 10^−7 M, 24 h
Method: (§1) DLD-1 and A549 cells were seeded (50,000 cells) on transwell filters with 8-µm pores previously coated with human fibronectin (25 µg/mL, 4 °C, overnight) in serum-free medium on the upper chamber. […] After 24 h incubation period at 37 °C, filters were rinsed with PBS and non-migrating cells were removed from the upper surface by using a cotton-swab. Migrating cells were fixed in successive baths of methanol (50, 70, 90 and 100%), stained with eosin and haematoxylin and filters were mounted on glass slides with Mowiol. Random phase contrast images of filters were then recorded, using a digital camera connected to a Nikon microscope (Eclipse TS-100) and image analysis was performed by using Image J’s Cell Counter. The data were represented as the ratio of treatment chemoattraction normalised to control.

[11] = system: DLD-1 cells; assay: Cell migration assay (modified Boyden chamber), DLD-1; type: cell-based, human; settings: 10^−9 or 10^−7 M, 24 h
Method: as §1

[12] = total radioactivity, Ratio tumour/muscle

| IC50 [6] | EC50 [7] | SMILES | internalisation rate of UT (ELISA) [1] | accumulation of UT in cytosolic puncta (confocal microscopy) [2] | tissue to tissue ratio at 24 h [3] | tissue to tissue ratio at 24 h ([3]; Ratio tumour/muscle) | tissue to tissue ratio at 24 h ([3]; total radioactivity) | tissue to tissue ratio at 24 h [3, 12] | tissue to tissue ratio at 24 h ([3]; tumour/muscle ratio) | further results |
| --- | --- | --- | --- | --- | --- | --- | --- | --- | --- | --- |
|  |  | CC(C)[C@H](NC(=O)[C@@H]1CSSC(C)(C)[C@H](NC(=O)[C@H](CC(=O)O)NC(=O)CCCCCNC(=O)CN2CCN(CC(=O)O)CCN(CC(=O)O)CCN(CC(=O)O)CC2)C(=O)N[C@@H](Cc2ccccc2)C(=O)N[C@H](Cc2c[nH]c3ccccc23)C(=O)N[C@@H](CCCN)C(=O)N[C@@H](Cc2ccc(O)cc2)C(=O)N1)C(=O)O [DOTA-urantide, DOTA-Ahx-D[Pen-F-W-Orn-YC]V] ({DOTA-Ahx}-D[Pen]F[dW][Orn]YCV-OH; disulfide 2-7) | failed to provoke UT internalisation | ineffective | 2.08 ± 0.45 | 2.47 ± 0.15 |  |  |  |  |
|  |  | CC(C)[C@H](NC(=O)[C@@H]1CSSC[C@H](NC(=O)[C@H](CC(=O)O)NC(=O)[C@@H]2CCCN2C(=O)[C@@H](NC(=O)[C@H](CCC(=O)O)NC(=O)CCCCCNC(=O)CN2CCN(CC(=O)O)CCN(CC(=O)O)CCN(CC(=O)O)CC2)[C@@H](C)O)C(=O)N[C@@H](Cc2ccccc2)C(=O)N[C@@H](Cc2c[nH]c3ccccc23)C(=O)N[C@@H](CCCCN)C(=O)N[C@@H](Cc2ccc(O)cc2)C(=O)N1)C(=O)O [^111In-DOTA-hUII, metal not drawn] |  |  |  |  | 2.85 ± 0.66 | 3.33 ± 0.96 | ~2.5 | Percent of Radiolabelled Peptide [4]: 98 ± 2 (%); metabolised at 3 h, 0.6 µM ([4]; human, serum): 30%; remaining at 1 h, 0.6 µM ([4]; human, serum): 82 ± 2%; remaining at 3 h, 0.6 µM ([4]; human, serum): 71 ± 4%; radioactive DOTA-peptide cleared from animals [5]: more than 90% |
| 9.13 ± 2.06 nM | 19.4 ± 2.47 nM | CC(C)[C@H](NC(=O)[C@@H]1CSSC[C@H](NC(=O)[C@H](CC(=O)O)NC(=O)[C@@H]2CCCN2C(=O)[C@@H](NC(=O)[C@H](CCC(=O)O)NC(=O)CCCCCNC(=O)CN2CCN(CC(=O)O)CCN(CC(=O)O)CCN(CC(=O)O)CC2)[C@@H](C)O)C(=O)N[C@@H](Cc2ccccc2)C(=O)N[C@@H](Cc2c[nH]c3ccccc23)C(=O)N[C@@H](CCCCN)C(=O)N[C@@H](Cc2ccc(O)cc2)C(=O)N1)C(=O)O [DOTA-hUII, DOTA-Ahx-ETPD[CFWKYC]V] | exerted similar effects, with very close potency and efficacy | promoted a strong accumulation of UT in cytosolic puncta into cells | 2.85 ± 0.66 | 3.33 ± 0.96 |  |  |  |  |
|  |  | CC(C)[C@H](NC(=O)[C@@H]1CSSC[C@H](NC(=O)[C@H](CC(=O)O)NC(=O)[C@@H]2CCCN2C(=O)[C@@H](NC(=O)[C@@H](N)CCC(=O)O)[C@@H](C)O)C(=O)N[C@@H](Cc2ccccc2)C(=O)N[C@@H](Cc2c[nH]c3ccccc23)C(=O)N[C@@H](CCCCN)C(=O)N[C@@H](Cc2ccc(O)cc2)C(=O)N1)C(=O)O [hUII, H2N-ETPDc-[CFWKYC]V-CO2H] | provoked a dose-dependent increase in internalisation rate of UT | promoted a strong accumulation of UT in cytosolic puncta into cells |  |  |  |  |  | proliferation rate [8]: increase the proliferation rate; proliferation rate [9]: increase the proliferation rate; chemotactic migration [10]: stimulated chemotactic migration; chemotactic migration [11]: stimulated chemotactic migration |
|  |  | CC(C)[C@H](NC(=O)[C@@H]1CSSC(C)(C)[C@H](NC(=O)[C@H](CC(=O)O)NC(=O)CCCCCNC(=O)CN2CCN(CC(=O)O)CCN(CC(=O)O)CCN(CC(=O)O)CC2)C(=O)N[C@@H](Cc2ccccc2)C(=O)N[C@H](Cc2c[nH]c3ccccc23)C(=O)N[C@@H](CCCN)C(=O)N[C@@H](Cc2ccc(O)cc2)C(=O)N1)C(=O)O [^111In-DOTA-urantide, metal not drawn] ({DOTA-Ahx}-D[Pen]F[dW][Orn]YCV-OH; disulfide 2-7) |  |  |  |  | 2.08 ± 0.45 | 2.47 ± 0.15 | ~2.5 |  |
| 29 ± 11.2 nM | 50.5 ± 16.1 nM | CC(C)[C@H](NC(=O)[C@@H]1CSSC(C)(C)[C@H](NC(=O)[C@@H](N)CC(=O)O)C(=O)N[C@@H](Cc2ccccc2)C(=O)N[C@H](Cc2c[nH]c3ccccc23)C(=O)N[C@@H](CCCN)C(=O)N[C@@H](Cc2ccc(O)cc2)C(=O)N1)C(=O)O [urantide, c-[Pen^5, D-Trp^7, Orn^8]hUII4-11, reference compound] (H-D[Pen]F[dW][Orn]YCV-OH; disulfide 2-7; N-terminus and C-terminus assumed) | failed to provoke UT internalisation | ineffective |  |  |  |  |  |  |
